Experimental data: patent publication US20250255889A1, “METHODS FOR TREATMENT SELECTION FOR CHRONIC LYMPHOCYTIC LEUKEMIA (CLL)” (The Broad Institute, Inc., priority 2022, published 2025)
Values belong to the compound of their own block, whether it stands above or below them.

Tests used:
[1] = system: primary CLL samples (CD19+ and CD5+ cells); assay: High-throughput dynamic BH3 profiling (HT-DBP): drug-induced apoptotic priming (delta priming), cytochrome c release after BH3 peptide; format: cell-based, human; details: for priming in CLL groups: CLL sample groups compared with normal PBMCs; for drug-induced apoptotic priming: across CLL subtypes, 65 primary CLL samples, 20 hours drug
Outline: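 Primary CLL cells (CD19+/CD5+) are treated with the agent or DMSO carrier, then briefly exposed to a fixed concentration of a promiscuous BH3 peptide such as BIM. Mitochondrial cytochrome c release serves as the priming surrogate. Delta priming is drug-treated priming minus DMSO-treated priming, run in high-throughput format.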

[2] = system: healthy PBMCs (normal cell types CD14, CD19, CD3); assay: HT-DBP delta priming in healthy donor normal cells; format: cell-based, human; details: normal peripheral blood mononuclear cells
Experimental: FIG. 17 provides a heatmap showing median delta priming across healthy donors for the indicated normal cell types (CD14, CD19, and CD3).
The assay was robust, as indicated by an 0.92 median Pearson correlation across replicates (FIGS. 5A, 5B, 6A, and 6B). Additionally, the majority of drugs had greater effect on CLL samples than on healthy PBMCs (p<0.001, paired t-test), supporting their specificity (FIGS. 7A-7C).
Delta-priming was measured for the molecular features listed along the top of FIGS. 14, 17, and 32 using the HT-DBP screen. The molecular features included IGHV subtypes, epitypes, expression subtypes (i.e., expression clusters), mutations in driver genes, and recurrent copy-number events. A feature was included in the heatmap of FIG. 14 only if at least 2 patients in a DBP screen had the feature. Median delta-priming was computed across all BH3 peptides and across all patients within the feature. […] Plots showing molecular features for groups of 65 and 81 patients were also compiled (see FIGS. 19, 20).

[3] = peptide BAD 0.3 uM, feature EC-m3
[4] = peptide MS1 2.5 uM, feature gain_16p11.2
[5] = peptide PUMA 1 uM, feature EC-m2
[6] = peptide PUMA 1 uM, feature loss_6q21

- priming response in normal cell groups [2]: minimal priming response
SMILES: CC1(C)CCC(c2ccc(Cl)cc2)=C(CN2CCN(c3ccc(C(=O)NS(=O)(=O)c4ccc(N[C@H](CCN5CCOCC5)CSc5ccccc5)c(S(=O)(=O)C(F)(F)F)c4)cc3)CC2)C1 [Navitoclax, navitoclax]
- priming in CLL groups [1]: potentially therapeutically relevant priming
- drug-induced apoptotic priming by expression cluster ([1]; EC-i): more sensitive to navitoclax than any other drug
- drug-induced apoptotic priming by expression cluster ([1]; EC-u2 (U-CLL)): most sensitive
- direction ([1]; Feature EC-m2): Resistant
- direction ([1]; Feature M-CLL): Sensitive
- direction ([1]; Feature U-CLL): Resistant
- direction ([1]; Feature n-CLL): Resistant
- drug-induced apoptotic priming [1]: high priming
- direction [1, 3]: Sensitive
- direction ([1]; peptide BAD 0.3 uM, feature EC-u1): Resistant
- direction ([1]; peptide BAD 0.3 uM, feature M-CLL): Sensitive
- direction ([1]; peptide BAD 0.3 uM, feature U-CLL): Resistant
- direction ([1]; peptide BAD 0.3 uM, feature loss_3p21.31): Sensitive
- direction ([1]; peptide BAD 0.3 uM, feature loss_5p15.33): Sensitive
- direction ([1]; peptide BAD 0.3 uM, feature loss_7q36.1): Sensitive
- direction ([1]; peptide BAD 0.3 uM, feature loss_8p): Sensitive
- direction ([1]; peptide BAD 0.3 uM, feature loss_12p13.31a): Sensitive
- direction ([1]; peptide BAD 0.3 uM, feature loss_14q32.12): Sensitive
- direction ([1]; peptide BAD 0.3 uM, feature loss_17p13.3): Sensitive
- direction ([1]; peptide BAD 0.3 uM, feature n-CLL): Resistant
- direction ([1]; peptide BIM 0.01 uM, feature loss_3p21.31): Sensitive
- direction ([1]; peptide BIM 0.01 uM, feature loss_7q36.1): Sensitive
- direction ([1]; peptide BIM 0.01 uM, feature loss_8p): Sensitive
- direction ([1]; peptide BIM 0.01 uM, feature loss_14q32.12): Sensitive
- direction ([1]; peptide MS1 2.5 uM, feature MYD88): Sensitive
- direction [1, 4]: Sensitive
- direction ([1]; peptide MS1 2.5 uM, feature loss_3p21.31): Sensitive
- direction ([1]; peptide MS1 2.5 uM, feature loss_7q36.1): Sensitive
- direction ([1]; peptide MS1 2.5 uM, feature loss_8p): Sensitive
- direction ([1]; peptide MS1 2.5 uM, feature loss_14q32.12): Sensitive
- direction [1, 5]: Resistant
- direction ([1]; peptide PUMA 1 uM, feature EC-m4): Sensitive
- direction [1, 6]: Resistant
- direction ([1]; peptide PUMA 1 uM, feature loss_14q32.12): Sensitive

- priming response in normal cell groups [2]: minimal priming response
SMILES: CC1(C)CCC(CN2CCN(c3ccc(C(=O)NS(=O)(=O)c4ccc(NCC5CCOCC5)c([N+](=O)[O-])c4)c(Oc4cnc5[nH]ccc5c4)c3)CC2)=C(c2ccc(Cl)cc2)C1 [Venetoclax, venetoclax]
- priming in CLL groups [1]: potentially therapeutically relevant priming
- drug-induced apoptotic priming by expression cluster ([1]; EC-m2, within M-CLL ECs): least effective
- drug-induced apoptotic priming by expression cluster ([1]; EC-m3, within M-CLL ECs): most effective
- direction ([1]; Feature EC-m2): Resistant
- direction ([1]; Feature loss_13q14.3): Sensitive
- drug-induced apoptotic priming [1]: highly effective
- positive delta priming values (rank among drugs) ([1]; across all evaluated BH3 peptides, 42 drugs): top-ten drugs with the highest positive delta priming values
- delta priming value of combined treatment ([1]; combined with MS1 peptide (MCL1 inhibitor), relative to alternative treatments): increased delta priming value
- direction [1, 3]: Sensitive
- direction ([1]; peptide BAD 0.3 uM, feature loss_13q14.3): Sensitive
- direction ([1]; peptide BIM 0.01 uM, feature SAMHD1): Sensitive
- direction ([1]; peptide MS1 2.5 uM, feature POT1): Sensitive
- direction [1, 4]: Sensitive
- direction ([1]; peptide MS1 2.5 uM, feature loss_13q14.13): Sensitive
- direction [1, 5]: Resistant
- direction [1, 6]: Resistant
